Experiment [1] deals with Lysine-specific demethylase 6B (Homo sapiens, UniProt O15054). The experiment can be described thus: Inhibition of KDM6B (unknown origin) after 24 hrs by alphascreen assay.
The target in experiment [2] is T1, Lysine-specific demethylase 3A (Homo sapiens, UniProt Q9Y4C1).
T1 sequence (Q9Y4C1 whole entry): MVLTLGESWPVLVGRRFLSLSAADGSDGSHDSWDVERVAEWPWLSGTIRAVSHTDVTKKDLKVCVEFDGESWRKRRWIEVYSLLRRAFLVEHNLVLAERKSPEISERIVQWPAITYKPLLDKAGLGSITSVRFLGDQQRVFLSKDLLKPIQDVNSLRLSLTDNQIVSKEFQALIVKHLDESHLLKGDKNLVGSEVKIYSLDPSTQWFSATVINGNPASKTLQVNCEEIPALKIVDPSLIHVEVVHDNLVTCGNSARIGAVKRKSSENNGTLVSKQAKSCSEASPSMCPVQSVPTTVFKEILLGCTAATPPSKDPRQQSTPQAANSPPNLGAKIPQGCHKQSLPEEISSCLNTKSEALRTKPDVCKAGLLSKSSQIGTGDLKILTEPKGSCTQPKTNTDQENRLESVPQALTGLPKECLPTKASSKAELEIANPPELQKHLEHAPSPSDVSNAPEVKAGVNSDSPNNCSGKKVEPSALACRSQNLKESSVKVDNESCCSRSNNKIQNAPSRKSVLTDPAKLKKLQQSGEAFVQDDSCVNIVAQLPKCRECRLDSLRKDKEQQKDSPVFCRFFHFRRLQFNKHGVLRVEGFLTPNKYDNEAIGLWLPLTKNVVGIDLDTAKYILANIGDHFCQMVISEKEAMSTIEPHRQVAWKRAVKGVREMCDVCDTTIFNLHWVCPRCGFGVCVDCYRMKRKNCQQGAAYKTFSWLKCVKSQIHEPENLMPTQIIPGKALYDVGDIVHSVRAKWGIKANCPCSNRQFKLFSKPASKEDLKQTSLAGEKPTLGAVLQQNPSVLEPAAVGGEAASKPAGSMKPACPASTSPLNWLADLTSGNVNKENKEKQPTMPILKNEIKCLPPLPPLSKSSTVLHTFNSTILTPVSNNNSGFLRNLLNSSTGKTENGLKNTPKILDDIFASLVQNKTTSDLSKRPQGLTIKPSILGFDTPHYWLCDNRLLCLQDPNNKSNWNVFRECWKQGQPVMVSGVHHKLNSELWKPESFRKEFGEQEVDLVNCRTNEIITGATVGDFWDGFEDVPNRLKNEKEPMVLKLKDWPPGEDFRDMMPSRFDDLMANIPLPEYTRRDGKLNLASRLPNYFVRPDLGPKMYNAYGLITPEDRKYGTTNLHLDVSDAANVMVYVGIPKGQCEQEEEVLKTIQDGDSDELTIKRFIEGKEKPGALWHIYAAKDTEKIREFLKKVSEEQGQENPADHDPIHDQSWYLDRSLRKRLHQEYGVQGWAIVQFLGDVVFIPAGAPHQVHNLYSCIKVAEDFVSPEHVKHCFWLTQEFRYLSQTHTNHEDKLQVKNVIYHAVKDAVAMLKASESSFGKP
The experiment can be described thus: Inhibition of recombinant human N-terminal FLAG-tagged KDM3A (2 to 1322 residues) expressed in baculovirus infected sf9 cells using biotin-H3K9me as substrate preincubated for 10 mins followed by substrate addition measured after 10 mins by AlphaLisa assay.

For experiment [3], the system named is MCF7. The experiment can be described thus: Antiproliferative activity against human MCF7 cells assessed as reduction in cell viability after 120 hrs by ATPlite assay. It is filed as functional, cell-based. The note with it: MCF7, 120 h.
The nature of experiment [4]: Antiproliferative activity against human BT474 cells assessed as reduction in cell viability after 120 hrs by ATPlite assay. It is filed as functional, cell-based. The note with it: BT-474, 120 h.
Experiment [5] concerns the target T1, Lysine-specific demethylase 3A. As to the kind of experiment: Inhibition of KDM3A (unknown origin) preincubated for 15 mins followed by histone substrate addition measured after 1 hr by alphascreen assay.
In experiment [6] the target is T2, Lysine-specific demethylase 4A (Homo sapiens, UniProt O75164).
T2 sequence (O75164 whole entry): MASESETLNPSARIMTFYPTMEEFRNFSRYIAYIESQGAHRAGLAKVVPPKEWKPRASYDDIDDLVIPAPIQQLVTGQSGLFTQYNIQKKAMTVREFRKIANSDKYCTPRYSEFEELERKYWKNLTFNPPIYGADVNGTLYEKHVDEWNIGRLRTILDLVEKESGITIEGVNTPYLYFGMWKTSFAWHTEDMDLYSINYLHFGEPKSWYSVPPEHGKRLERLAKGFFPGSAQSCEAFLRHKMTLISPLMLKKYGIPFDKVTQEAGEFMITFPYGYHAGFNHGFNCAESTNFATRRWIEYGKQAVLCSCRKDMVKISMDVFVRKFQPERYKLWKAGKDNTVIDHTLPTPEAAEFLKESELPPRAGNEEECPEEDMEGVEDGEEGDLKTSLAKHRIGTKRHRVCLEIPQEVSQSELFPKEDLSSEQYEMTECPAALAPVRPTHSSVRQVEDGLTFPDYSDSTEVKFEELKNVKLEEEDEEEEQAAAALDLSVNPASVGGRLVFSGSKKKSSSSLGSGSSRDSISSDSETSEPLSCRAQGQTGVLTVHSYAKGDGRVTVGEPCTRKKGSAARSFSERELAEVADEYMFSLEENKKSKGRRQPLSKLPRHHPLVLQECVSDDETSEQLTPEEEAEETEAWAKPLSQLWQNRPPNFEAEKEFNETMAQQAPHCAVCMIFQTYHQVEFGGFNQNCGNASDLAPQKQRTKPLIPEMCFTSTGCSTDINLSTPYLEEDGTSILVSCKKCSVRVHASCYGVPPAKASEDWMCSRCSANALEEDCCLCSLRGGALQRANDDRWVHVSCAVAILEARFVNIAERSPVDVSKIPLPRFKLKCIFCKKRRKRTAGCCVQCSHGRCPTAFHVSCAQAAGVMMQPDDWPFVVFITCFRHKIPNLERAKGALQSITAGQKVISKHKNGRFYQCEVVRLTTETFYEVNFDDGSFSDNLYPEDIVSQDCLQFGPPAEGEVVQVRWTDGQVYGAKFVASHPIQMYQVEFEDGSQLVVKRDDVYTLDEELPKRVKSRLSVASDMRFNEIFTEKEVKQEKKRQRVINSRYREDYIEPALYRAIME
As to the kind of experiment: Inhibition of full-length FLAG-tagged KDM4A (unknown origin) expressed in human HeLa cells assessed as increase in H3K9me3 level after 24 hrs by DAPI staining based immunofuorescence assay. The class given is cell-based.

Where only a bound is given, the exact number is not on record here.

Sequence of Lysine-specific demethylase 6B (O15054 whole entry): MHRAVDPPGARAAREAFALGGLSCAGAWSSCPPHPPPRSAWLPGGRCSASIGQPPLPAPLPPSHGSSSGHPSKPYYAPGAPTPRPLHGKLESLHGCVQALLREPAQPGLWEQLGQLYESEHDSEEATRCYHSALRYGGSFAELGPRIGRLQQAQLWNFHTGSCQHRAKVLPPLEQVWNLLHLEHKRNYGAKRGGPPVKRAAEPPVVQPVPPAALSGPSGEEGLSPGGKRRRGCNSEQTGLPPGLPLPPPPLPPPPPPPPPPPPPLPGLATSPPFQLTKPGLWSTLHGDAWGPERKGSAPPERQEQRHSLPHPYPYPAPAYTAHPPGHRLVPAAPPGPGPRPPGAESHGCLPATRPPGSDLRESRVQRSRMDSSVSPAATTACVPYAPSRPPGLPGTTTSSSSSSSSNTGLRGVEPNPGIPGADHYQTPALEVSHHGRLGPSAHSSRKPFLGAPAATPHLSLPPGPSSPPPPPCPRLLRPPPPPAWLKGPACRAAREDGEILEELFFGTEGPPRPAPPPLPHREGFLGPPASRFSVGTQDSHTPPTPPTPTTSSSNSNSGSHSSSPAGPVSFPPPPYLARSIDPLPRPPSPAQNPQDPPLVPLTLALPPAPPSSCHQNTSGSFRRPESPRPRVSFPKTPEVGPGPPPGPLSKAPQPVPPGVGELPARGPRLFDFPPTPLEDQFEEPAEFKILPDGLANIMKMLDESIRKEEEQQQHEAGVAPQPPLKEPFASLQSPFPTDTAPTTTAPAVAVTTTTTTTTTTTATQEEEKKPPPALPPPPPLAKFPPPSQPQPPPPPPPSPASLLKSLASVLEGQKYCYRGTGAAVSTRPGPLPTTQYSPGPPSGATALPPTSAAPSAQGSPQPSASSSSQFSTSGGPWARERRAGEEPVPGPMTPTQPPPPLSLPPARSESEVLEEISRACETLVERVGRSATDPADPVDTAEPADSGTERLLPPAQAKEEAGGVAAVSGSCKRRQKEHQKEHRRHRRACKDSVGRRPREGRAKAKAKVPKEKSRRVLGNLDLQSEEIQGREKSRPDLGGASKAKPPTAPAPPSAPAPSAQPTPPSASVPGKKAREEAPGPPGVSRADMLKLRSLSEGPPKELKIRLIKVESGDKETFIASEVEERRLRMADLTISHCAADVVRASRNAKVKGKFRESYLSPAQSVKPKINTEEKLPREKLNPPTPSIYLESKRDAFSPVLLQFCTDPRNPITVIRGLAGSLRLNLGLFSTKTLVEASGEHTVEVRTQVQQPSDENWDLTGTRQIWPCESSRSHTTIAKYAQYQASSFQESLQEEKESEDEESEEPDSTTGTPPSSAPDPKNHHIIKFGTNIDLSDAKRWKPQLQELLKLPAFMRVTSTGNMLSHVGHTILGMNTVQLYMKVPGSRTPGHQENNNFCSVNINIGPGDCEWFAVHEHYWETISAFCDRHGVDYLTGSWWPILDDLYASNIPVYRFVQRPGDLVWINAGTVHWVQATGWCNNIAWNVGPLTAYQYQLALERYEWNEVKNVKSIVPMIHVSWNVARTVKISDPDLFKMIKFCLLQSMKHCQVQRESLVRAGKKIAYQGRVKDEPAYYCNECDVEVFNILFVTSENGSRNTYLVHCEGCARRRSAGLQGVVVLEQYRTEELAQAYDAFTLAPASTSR

In turn, `CCCCCCCCOC(=O)c1ccc(O)c2ncccc12` had an IC50 in experiment [1] above 100000 nM.
With `CCN(CCN(C)C)C(=O)CNCc1cc(CNC(=O)C(F)(F)F)ccn1`, the IC50 in experiment [2] was above 2500 nM.
In the case of `CCN(CC)CCCCNCc1cc(C=O)ccn1`, the EC50 in experiment [3] and in experiment [4] was below 250 nM each time. For the same molecule, the IC50 in experiment [2] is above 2500 nM.
Turning to `CCN(CCN(C)C)C(=O)CNCc1cc(C(=O)O)ccn1`, the IC50 in experiment [3] was found to be 1000 nM.
In experiment [5], `Cc1ccsc1C(NC(=O)c1ccccc1)c1cc(Cl)c2cccnc2c1O` (racemic) returned an IC50 of 191000 nM. In experiment [6], the EC50 stood at 9000 nM.

Values taken from ChEMBL document CHEMBL3784917, “Recent Progress in Histone Demethylase Inhibitors” (J Med Chem, 2016).
